# According to ChEMBL document CHEMBL1201862, “PubChem BioAssay data set” (2004):
# The source made the active and inactive calls.
# What was measured:
# [1] = growth inhibition of yeast DHODH-expressing 3D7 parasites – SYBR Green, dry powder samples, dose response (AID 1159570); assay type: functional, cell-based;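 note: parasite growth measured after 72 hours of compound exposure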
# [2] = P. falciparum Dd2 growth inhibitors, dose response, SYBR Green, cherry-picked samples (AID 1159567); assay type: functional, cell-based
# [3] = Dd2 malaria parasite growth inhibition potency – SYBR Green, dry powder samples, dose response (AID 1159566); assay type: functional, cell-based;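 note: potency for growth inhibition with lower SYBR green DNA signal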
# [4] = growth inhibition of PfATP4-mutant resistant parasites – NITD609-resistant line, SYBR Green, dry powder, dose response (AID 1159571); assay type: functional, cell-based;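 note: parasites synchronized at ring stage by sorbitol before testing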
# [5] = biological target: T1, RNA-binding protein pos-1 (Caenorhabditis elegans, UniProt G5EF15); assay: disruptors of C. elegans POS-1 RNA interaction – biochemical, fluorescence polarization, dose response (AID 1964);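 note: purified POS-1 fused to maltose binding protein made in E. coli; potency of compounds blocking POS-1 binding to fluorescent RNA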
# T1 sequence (G5EF15 whole entry): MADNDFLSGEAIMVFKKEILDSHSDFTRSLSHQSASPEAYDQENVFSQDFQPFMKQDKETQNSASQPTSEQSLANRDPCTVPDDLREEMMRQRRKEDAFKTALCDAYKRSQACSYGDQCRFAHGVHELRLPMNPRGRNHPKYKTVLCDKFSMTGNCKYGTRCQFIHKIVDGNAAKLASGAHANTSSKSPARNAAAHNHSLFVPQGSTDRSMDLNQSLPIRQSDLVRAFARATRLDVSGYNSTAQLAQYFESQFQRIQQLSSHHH
# [6] = biological target: T2, Zinc finger protein mex-5 (Caenorhabditis elegans, UniProt Q9XUB2); assay: potency of MEX-5 RNA-binding blockers – biochemical, C. elegans, fluorescence polarization, dose response (AID 1960)
# T2 sequence (Q9XUB2 whole entry): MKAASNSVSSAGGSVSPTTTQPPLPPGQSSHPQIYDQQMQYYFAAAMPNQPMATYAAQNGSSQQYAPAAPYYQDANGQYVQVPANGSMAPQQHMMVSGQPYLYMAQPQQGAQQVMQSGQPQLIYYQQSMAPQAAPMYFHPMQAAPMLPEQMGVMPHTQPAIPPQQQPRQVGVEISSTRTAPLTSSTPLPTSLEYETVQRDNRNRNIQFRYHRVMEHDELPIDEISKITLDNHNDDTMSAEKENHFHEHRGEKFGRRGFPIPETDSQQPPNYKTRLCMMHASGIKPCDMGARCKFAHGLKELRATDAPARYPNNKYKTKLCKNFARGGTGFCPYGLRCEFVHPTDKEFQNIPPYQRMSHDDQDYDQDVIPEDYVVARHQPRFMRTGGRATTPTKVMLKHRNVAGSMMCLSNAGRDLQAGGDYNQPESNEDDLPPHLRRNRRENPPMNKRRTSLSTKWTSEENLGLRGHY
# [7] = biological target: T3, DNA repair protein RAD52 homolog (Homo sapiens, UniProt P43351); assay type: functional, biochemical
# T3 sequence (P43351 whole entry): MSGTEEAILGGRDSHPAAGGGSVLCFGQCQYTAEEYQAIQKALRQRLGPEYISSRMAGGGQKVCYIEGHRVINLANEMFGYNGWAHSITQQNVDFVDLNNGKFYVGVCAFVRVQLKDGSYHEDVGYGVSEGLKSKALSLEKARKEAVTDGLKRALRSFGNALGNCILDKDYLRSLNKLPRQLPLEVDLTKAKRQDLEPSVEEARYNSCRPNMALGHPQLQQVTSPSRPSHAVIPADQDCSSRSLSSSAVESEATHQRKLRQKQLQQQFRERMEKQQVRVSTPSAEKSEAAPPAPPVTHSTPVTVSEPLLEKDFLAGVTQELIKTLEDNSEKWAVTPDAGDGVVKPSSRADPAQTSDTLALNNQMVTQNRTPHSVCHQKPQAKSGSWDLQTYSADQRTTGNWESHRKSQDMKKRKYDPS
# [8] = off-target signal loss in HeLa-CEM21 co-culture – HeLa F-luc CTL cells, cherry-picked, counter-screen for HIV-1 Env fusion inhibitor project, dose response (AID 652040); assay type: functional, cell-based;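 note: potency for signal decrease marking cytotoxic or nonspecific inhibition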
# [9] = HIV-1 AD8 envelope cell-cell fusion blockers – cherry-pick, dose response (AID 652062); assay type: functional, cell-based;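 note: luciferase signal from cell-cell fusion driven by HIV-1 clade B AD8 Env; potency is for inhibitors of fusion seen as a drop in luminescence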
# H9c2 = assay: cells; assay type: functional, cell-based; conditions: Rattus norvegicus, H9c2, Myocardium;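 note: confirmatory concentration-response retest of ultra-high-throughput screening hits for modulation of myocardial damage; cell death induced by hydrogen peroxide oxidative stress; compound pretreatment for 60 min then peroxide exposure for 2 h; potency is for protecting the cells against peroxide damage rather than for killing them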
# [10] = intracellular Trypanosoma cruzi inhibitors in host cells – cell-based, plate reader, cherry-pick samples, set 3, dose response (AID 651818); assay type: functional;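 note: compounds incubated with infected cells for about four days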
# [11] = system: Streptococcus sp. 'group A'; assay: Streptococcus pyogenes SK(-)GAS viability under kanamycin – luminescence, BacTiterGlo, confirmation, counter-screen for streptokinase expression inhibitor project, dose response (AID 1900); assay type: functional, organism-based
# [12] = biological target: Induced myeloid leukemia cell differentiation protein Mcl-1 (Homo sapiens, UniProt Q07820); assay type: functional
# Chain of Induced myeloid leukemia cell differentiation protein Mcl-1 (Q07820 whole entry): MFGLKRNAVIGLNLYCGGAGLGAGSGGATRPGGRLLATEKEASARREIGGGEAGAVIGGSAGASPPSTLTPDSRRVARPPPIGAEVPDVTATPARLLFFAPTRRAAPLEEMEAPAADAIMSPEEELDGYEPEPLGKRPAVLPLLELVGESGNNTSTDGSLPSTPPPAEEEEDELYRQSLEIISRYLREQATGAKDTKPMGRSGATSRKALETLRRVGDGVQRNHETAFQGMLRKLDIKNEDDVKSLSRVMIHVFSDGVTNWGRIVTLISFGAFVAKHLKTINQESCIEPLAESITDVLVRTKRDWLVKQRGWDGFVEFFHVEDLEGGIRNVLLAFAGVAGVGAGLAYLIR
# Streptococcus = assay: GAS UMAA2166 growth inhibition – luminescence, BacTiterGlo, counter-screen for streptokinase expression inhibitor project, dose response (AID 1915); assay type: functional, organism-based;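 note: potency for reduction of bacterial viability or growth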
# [13] = biological target: T4, Corticotropin-releasing factor receptor 2/Corticotropin-releasing factor-binding protein (Homo sapiens, UniProt P24387+Q13324); assay: Dose Response confirmation of uHTS hits for small molecule antagonists of the CRF-binding protein and CRF-R2 receptor complex.; assay type: functional; conditions: read-out: IC50_Mean
# T4 sequence (Q13324 whole entry): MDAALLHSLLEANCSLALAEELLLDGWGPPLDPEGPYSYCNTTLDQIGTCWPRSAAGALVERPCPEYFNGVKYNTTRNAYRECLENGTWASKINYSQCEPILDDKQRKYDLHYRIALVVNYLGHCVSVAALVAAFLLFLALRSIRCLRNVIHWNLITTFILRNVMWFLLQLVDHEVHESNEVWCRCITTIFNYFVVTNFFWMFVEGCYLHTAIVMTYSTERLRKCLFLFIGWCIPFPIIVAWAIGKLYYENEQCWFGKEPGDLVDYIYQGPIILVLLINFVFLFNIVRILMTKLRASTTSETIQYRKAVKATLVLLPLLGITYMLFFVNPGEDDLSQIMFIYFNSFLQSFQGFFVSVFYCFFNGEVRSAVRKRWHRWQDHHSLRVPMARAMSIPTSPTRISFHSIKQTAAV
# T4 sequence (P24387 whole entry): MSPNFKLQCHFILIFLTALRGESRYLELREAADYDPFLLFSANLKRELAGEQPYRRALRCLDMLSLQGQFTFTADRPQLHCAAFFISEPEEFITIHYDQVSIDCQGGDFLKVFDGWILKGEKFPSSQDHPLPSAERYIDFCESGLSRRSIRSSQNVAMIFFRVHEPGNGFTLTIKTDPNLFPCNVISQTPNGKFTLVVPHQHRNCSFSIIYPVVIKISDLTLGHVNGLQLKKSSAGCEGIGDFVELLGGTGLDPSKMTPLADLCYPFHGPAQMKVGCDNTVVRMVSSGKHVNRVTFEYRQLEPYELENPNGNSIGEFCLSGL
# [14] = biological target: T4, Corticotropin-releasing factor receptor 2/Corticotropin-releasing factor-binding protein; assay: activators of CRF receptor 2 with binding protein – uHTS hits, confirmation (AID 602473); assay type: functional; conditions: read-out: EC50_Mean
# [15] = biological target: T5, Calpain-2 catalytic subunit (Sus scrofa, UniProt P43367); assay: m-calpain protease blockers, concentration series – biochemical, fluorogenic peptide substrate, dose response (AID 1420); assay type: functional
# T5 sequence (P43367 whole entry): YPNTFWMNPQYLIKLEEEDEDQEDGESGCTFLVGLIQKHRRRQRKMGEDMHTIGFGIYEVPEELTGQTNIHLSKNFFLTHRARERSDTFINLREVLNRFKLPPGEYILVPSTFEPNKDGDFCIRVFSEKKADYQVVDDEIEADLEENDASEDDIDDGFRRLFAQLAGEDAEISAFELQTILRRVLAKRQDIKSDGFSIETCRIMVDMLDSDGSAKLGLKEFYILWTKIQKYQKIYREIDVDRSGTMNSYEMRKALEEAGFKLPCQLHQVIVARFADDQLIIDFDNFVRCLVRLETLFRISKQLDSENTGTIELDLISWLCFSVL
# [16] = blockers of HIV-1 envelope-mediated cell-cell fusion – cherry-pick, dose response (AID 652057); assay type: functional, cell-based
# [17] = blockers of HIV-1 ZM109 envelope-driven cell-cell fusion – HeLa effector, CEM target cells, luciferase, cherry-pick, dose response (AID 652058); assay type: functional, cell-based;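 note: luciferase signal from HIV-1 Env mediated cell-cell fusion of effector and target cells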
# [18] = biological target: T6, Ubiquitin-conjugating enzyme E2 N (Homo sapiens, UniProt P61088); assay type: functional;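 note: Dose-response confirmation in a TR-FRET assay detecting UBC13-driven polyubiquitin chain formation, inhibition measured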
# T6 sequence (P61088 whole entry): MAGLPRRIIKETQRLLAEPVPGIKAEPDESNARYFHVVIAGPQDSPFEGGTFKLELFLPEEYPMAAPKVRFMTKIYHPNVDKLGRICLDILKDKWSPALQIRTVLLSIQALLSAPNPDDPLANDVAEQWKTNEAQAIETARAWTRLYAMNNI
compound,measurement,setting,value
O=C(Nc1ccccc1)N1CCCCN2[C@H](CO)[C@H](c3ccc(C#Cc4cccnc4)cc3)[C@@H]2C1,AC50,[1],0.15 µM (active)
same,AC50,[2],0.676 µM (active)
same,AC50,[3],0.165 µM (active)
same,AC50,[4],0.157 µM (active)
CCn1c(C)nc2cc(N)ccc21,EC50,[5],261 µM (active)
same,EC50,[6],4.59 µM (active)
same,AC50,[7],5.49 µM (active)
OCC[C@@H]1C[C@@H](O)[C@H](O)[C@]2(OCc3ccccc32)O1,AC50,[8],28.2 µM (active)
same,AC50,[9],27.2 µM (active)
C[C@@H]1CN([C@H](C)CO)S(=O)(=O)c2ccc(C#Cc3ccccc3F)cc2O[C@H]1CN(C)C(=O)c1ccc2c(c1)OCO2,IC50,H9c2,> 79 µM (inactive)
same,AC50,[1],1.61 µM (active)
same,AC50,[2],1.6 µM (active)
same,AC50,[3],1.18 µM (active)
same,AC50,[4],0.925 µM (active)
C[C@@H]1CN([C@@H](C)CO)C(=O)c2cccc(NS(=O)(=O)c3ccc(Cl)cc3)c2O[C@H]1CN(C)Cc1ccc(C(=O)Nc2ccccc2N)cc1,AC50,[10],2.53 µM (active)
O=[N+]([O-])c1cc(Br)c(O)c(/C=N/Nc2nc3ccccc3s2)c1,EC50,[11],1.59 µM (active)
same,IC50,[12],> 54 µM (active)
same,EC50,Streptococcus,1.69 µM (active)
O=C(N/N=C/c1ccccn1)c1cccs1,IC50,H9c2,> 79 µM (inactive)
same,IC50,[13],> 47.1 µM (inactive)
same,EC50,[14],> 53 µM (inactive)
O=C1c2cccc3cccc(c23)C(=O)N1CCN1CCN(C(=S)Nc2ccc(Cl)cc2)CC1,IC50,[15],22.7 µM (not active)
C[C@H](CO)N1C[C@H](C)[C@H](CN(C)C(=O)Nc2ccc(F)cc2)Oc2c(NC(=O)c3ccncc3)cccc2C1=O,AC50,[10],2.08 µM (active)
Cc1cccc(Oc2ccc(Cl)cc2N)c1,IC50,[15],> 50 µM (not active)
C[C@@H]1CN([C@@H](C)CO)C(=O)c2cccc(NC(=O)Nc3ccc(F)cc3)c2O[C@@H]1CN(C)Cc1ccc(C(=O)Nc2ccccc2N)cc1,AC50,[10],3.68 µM (active)
C[C@H](CO)N1C[C@H](C)[C@@H](CN(C)C(=O)Nc2cccc3ccccc23)Oc2ccc(NC(=O)Cc3cn(C)c4ccccc34)cc2C1=O,AC50,[1],2.16 µM (active)
same,AC50,[2],2.34 µM (active)
same,AC50,[3],1.38 µM (active)
same,AC50,[4],1.56 µM (active)
C[C@@H]1CN([C@@H](C)CO)C(=O)c2cccc(NC(=O)Nc3ccccc3)c2O[C@@H]1CN(C)C(=O)Nc1ccc(F)cc1,AC50,[1],0.65 µM (active)
same,AC50,[2],0.392 µM (active)
same,AC50,[3],0.35 µM (active)
same,AC50,[4],0.372 µM (active)
CC1CCN(C(=O)c2ncn3c2C(=O)N[C@@H](C)C3)CC1,AC50,[16],1.94 µM (active)
same,AC50,[17],9.53 µM (active)
same,AC50,[8],7.15 µM (active)
same,AC50,[9],9.91 µM (active)
COc1cc2c3cc1Oc1c(OC)c(OC)cc4c1[C@H](Cc1ccc(cc1)Oc1cc(ccc1O)C[C@H]3N(C)CC2)N(C)CC4 [AROMOLINE],AC50,[7],9.29 µM (active)
Cc1ccc(S(=O)(=O)Nc2ccc3c(c2)C(=O)N([C@H](C)CO)C[C@H](C)[C@@H](CN(C)C(=O)Nc2ccc(C(F)(F)F)cc2)OCCCC[C@@H](C)O3)cc1,AC50,[10],4.82 µM (active)
O=C(OCC(=O)N1c2ccccc2Sc2ccccc21)c1ccc[n+]([O-])c1,IC50,[15],1.66 µM (not active)
CCN(CC)CCN(C(=O)c1ccc(N2C(=O)CCC2=O)cc1)c1nc2cc3c(cc2s1)OCCO3,AC50,[7],21.9 µM (active)
CCN(CC)CCN(C(=O)c1ccc2c(c1)CCCC2)c1nc2c(OC)cccc2s1,AC50,[7],24.3 µM (active)
COc1ccccc1NS(=O)(=O)c1cccc(C(=O)N/N=C/c2c(CO)cnc(C)c2O)c1,IC50,[18],> 20 µM (inactive)
same,IC50,H9c2,> 79 µM (inactive)
C[C@@H]1CN([C@H](C)CO)C(=O)Cc2cc(NS(=O)(=O)c3ccc(F)cc3)ccc2O[C@@H]1CN(C)Cc1ccc(-c2ccccc2)cc1,AC50,[10],3.2 µM (active)
Cc1ccc(S(=O)(=O)N(C)C[C@H]2Oc3c(NC(=O)c4nc5ccccc5s4)cccc3C(=O)N([C@@H](C)CO)C[C@@H]2C)cc1,AC50,[10],1.09 µM (active)
O=C(Cc1ccc(S(=O)(=O)N2CCOCC2)s1)N1CCN(S(=O)(=O)c2ccc(Cl)cc2)CC1,AC50,[16],7.03 µM (active)
same,AC50,[17],7.93 µM (active)
same,AC50,[8],14.1 µM (active)
same,AC50,[9],28.2 µM (active)
CC(C)/N=C(\S)NN=C1CCCCCCCCCCC1,IC50,[15],1.04 µM (not active)
